Where two headings read alike, the source gives them in different places.
Test system: biological indicators
Conditions: for Biological Indicator Results: STERRAD 50, 6 minutes contact, plasma 400 watts
Description: The biological indicator is placed into the sterilizer with the equipment to be sterilized. At the end of the sterilization process, the biological indicator is removed from the sterilizer, and the carrier is immersed in a sterile culture medium. The culture medium and carrier are incubated for a predetermined time at an appropriate temperature. At the end of the incubation period, it is determined whether any microorganisms have grown in the growth medium. If there is no growth of microorganisms in the growth medium, it is assumed that the equipment in the sterilizer has been properly sterilized. If microorganism growth is observed, the sterilization process was not effective, and the articles in the sterilizer are rejected for use. The growth of microorganisms is determined through a signal such as the generation of turbidity or a color change in a pH indicator due to a pH change from byproducts of cell growth in the medium. Biological indicators are described, for example, in U.S. Pat. Nos. 5,552,320 and 6,436,659, both of which are incorporated herein by reference in their entirety.
A series of integrators was prepared by contacting paper disks with an aqueous solution of arginine. The integrators were placed in a STERRAD® 50 sterilizer with a load of equipment to be sterilized and several biological indicators. The paper disks are absorbing substrates.
The sterilizer was evacuated to 0.8 torr. Plasma was produced in the chamber for 15 minutes to condition the load. The sterilizer was evacuated further to 0.4 torr, and hydrogen peroxide was injected and contacted with the load, integrators, and biological indicators for 6 minutes.
The sterilizer was vented with air for 2 minutes. The sterilizer was evacuated again to 0.5 torr, and plasma was produced for an additional 2 minutes. The plasma power was 400 watts for both plasma exposures.

For `OO` [Hydrogen Peroxide, hydrogen peroxide], the “Biological indicator (BI) result” value (Hydrogen peroxide injection of 300 μL in the STERRAD 50 sterilizer) was “negative”, the “Biological Indicator Results” value (Hydrogen peroxide injection volume 100 μL) was 100% positive and the “Biological Indicator Results” value (Hydrogen peroxide injection volume 250 μL) was 40% positive. The “Biological Indicator Results” value (Hydrogen peroxide injection volume 400 μL) was 0% positive and the “Biological Indicator Results” value (Hydrogen peroxide injection volume 500 μL) was 0% positive.

Source: US20070092969A1, “Integrator system and method for rapidly determining effectiveness of a germicidal treatment” (priority 2005, published 2007)
